Calls of active or inactive are those of the source. The calls are words filed in the database; no cut-off is given here.
What was measured:
[1] = target: Tyrosine-protein kinase SYK (Homo sapiens) (UniProt P43405); assay: Inhibition of Syk (unknown origin) assessed as enzyme residual activity at 10 uM by radiometric protein kinase assay
[2] = target: Tyrosine-protein kinase Lyn (Homo sapiens) (UniProt P07948); assay: Inhibition of Lyn (unknown origin) assessed as enzyme residual activity at 10 uM by radiometric protein kinase assay
[3] = target: Tyrosine-protein kinase BTK (Homo sapiens) (UniProt Q06187); assay: Inhibition of BTK (unknown origin) assessed as enzyme residual activity at 10 uM by radiometric protein kinase assay
[4] = target: Tyrosine-protein kinase Lyn (Homo sapiens) (UniProt P07948); assay: Inhibition of Lyn phosphorylation in human Rec1 cells at 2.5 uM incubated for 6 hrs by Western blotting method; assay type: cell-based
[5] = Inhibition of cell proliferation of human Rec1 cells at 5 uM after 24 hrs by MTT assay; assay type: functional; conditions: Rec1, 24 h
[6] = target: Tyrosine-protein kinase Lyn (Homo sapiens) (UniProt P07948); assay: Inhibition of Lyn phosphorylation in human Rec1 cells at 0.1 to 5 uM incubated for 6 hrs by Western blotting method; assay type: cell-based
[7] = target: Tyrosine-protein kinase BTK (Homo sapiens) (UniProt Q06187); assay: Inhibition of BTK phosphorylation in human Rec1 cells at 5 uM incubated for 6 hrs by Western blotting method; assay type: cell-based
[8] = target: Tyrosine-protein kinase SYK (Homo sapiens) (UniProt P43405); assay: Inhibition of Syk phosphorylation in human Rec1 cells at 0.1 to 5 uM incubated for 6 hrs by Western blotting method; assay type: cell-based
[9] = target: Tyrosine-protein kinase BTK (Homo sapiens) (UniProt Q06187); assay: Inhibition of BTK phosphorylation in human Rec1 cells at 1 uM incubated for 6 hrs by Western blotting method; assay type: cell-based
[10] = Growth inhibition of human HBL2 cells after 24 hrs by MTT assay; assay type: functional; conditions: HBL2, 24 h
[11] = Growth inhibition of human HBL2 cells after 48 hrs by MTT assay; assay type: functional; conditions: HBL2, 48 h
[12] = Growth inhibition of human Rec1 cells after 24 hrs by MTT assay; assay type: functional; conditions: Rec1, 24 h
[13] = Growth inhibition of human Rec1 cells after 48 hrs by MTT assay; assay type: functional; conditions: Rec1, 48 h
[14] = Growth inhibition of bortezomib-resistant human JBR cells after 24 hrs by MTT assay; assay type: functional
PBMC = assay: Induction of apoptotic cell death in human PBMCs at 1 to 10 uM after 24 hrs by Annexin V and propidium iodide staining based flow cytometry
[15] = Growth inhibition of bortezomib-resistant human JBR cells after 48 hrs by MTT assay; assay type: functional
[16] = Solubility in water; assay type: physicochemical
[17] = Growth inhibition of human DOHH2 cells after 24 hrs by MTT assay; assay type: functional; conditions: DOHH-2, 24 h
[18] = Growth inhibition of human DOHH2 cells after 48 hrs by MTT assay; assay type: functional; conditions: DOHH-2, 48 h
[19] = Growth inhibition of human Maver1 cells after 24 hrs by MTT assay; assay type: functional; conditions: Maver1, 24 h
WSU-NHL [20] = assay: Growth inhibition of human WSU-NHL cells after 48 hrs by MTT assay; assay type: functional
[21] = Growth inhibition of human Mino cells after 48 hrs by MTT assay; assay type: functional
[22] = Growth inhibition of human OCI-Ly8 cells after 48 hrs by MTT assay; assay type: functional; conditions: OCI-Ly8, 48 h
[23] = Growth inhibition of human MEC2 cells after 48 hrs by MTT assay; assay type: functional; conditions: MEC2, 48 h
[24] = Growth inhibition of human MEC2 cells after 24 hrs by MTT assay; assay type: functional; conditions: MEC2, 24 h
WSU-NHL [25] = assay: Growth inhibition of human WSU-NHL cells after 24 hrs by MTT assay; assay type: functional
[26] = Growth inhibition of human SUDHL16 cells after 48 hrs by MTT assay; assay type: functional; conditions: SU-DHL-16, 48 h
[27] = Growth inhibition of human Z138C cells after 48 hrs by MTT assay; assay type: functional
[28] = Growth inhibition of human MEC1 cells after 48 hrs by MTT assay; assay type: functional; conditions: MEC1, 48 h
[29] = Growth inhibition of human Mino cells after 24 hrs by MTT assay; assay type: functional
[30] = Growth inhibition of human Z138C cells after 24 hrs by MTT assay; assay type: functional
[31] = Growth inhibition of human SUDHL8 cells after 48 hrs by MTT assay; assay type: functional; conditions: SU-DHL-8, 48 h
[32] = Growth inhibition of human Maver1 cells after 48 hrs by MTT assay; assay type: functional; conditions: Maver1, 48 h
[33] = Growth inhibition of human JVM13 cells after 48 hrs by MTT assay; assay type: functional; conditions: JVM13, 48 h
[34] = Growth inhibition of human GRANTA-519 cells after 24 hrs by MTT assay; assay type: functional; conditions: Granta-519, 24 h
[35] = Growth inhibition of human JVM2 cells after 24 hrs by MTT assay; assay type: functional; conditions: JVM-2, 24 h
[36] = Growth inhibition of human GRANTA-519 cells after 48 hrs by MTT assay; assay type: functional; conditions: Granta-519, 48 h
[37] = Growth inhibition of human JeKo1 cells after 48 hrs by MTT assay; assay type: functional; conditions: JeKo-1, 48 h
[38] = Growth inhibition of human JVM13 cells after 24 hrs by MTT assay; assay type: functional; conditions: JVM13, 24 h
[39] = Growth inhibition of human OCI-Ly8 cells after 24 hrs by MTT assay; assay type: functional; conditions: OCI-Ly8, 24 h
[40] = Growth inhibition of human SC1 cells after 24 hrs by MTT assay; assay type: functional; conditions: SC-1, 24 h
[41] = Growth inhibition of human UPN1 cells after 24 hrs by MTT assay; assay type: functional; conditions: UPN1, 24 h
[42] = Growth inhibition of human JeKo1 cells after 24 hrs by MTT assay; assay type: functional; conditions: JeKo-1, 24 h
[43] = Growth inhibition of human SUDHL16 cells after 24 hrs by MTT assay; assay type: functional; conditions: SU-DHL-16, 24 h
[44] = Growth inhibition of human UPN1 cells after 48 hrs by MTT assay; assay type: functional; conditions: UPN1, 48 h
[45] = Growth inhibition of human U2932 cells after 24 hrs by MTT assay; assay type: functional; conditions: U2932, 24 h
[46] = Growth inhibition of human SC1 cells after 48 hrs by MTT assay; assay type: functional; conditions: SC-1, 48 h
[47] = Growth inhibition of human MEC1 cells after 24 hrs by MTT assay; assay type: functional; conditions: MEC1, 24 h
[48] = Growth inhibition of human WSU-FSCCL cells after 48 hrs by MTT assay; assay type: functional
[49] = Growth inhibition of human JVM2 cells after 48 hrs by MTT assay; assay type: functional; conditions: JVM-2, 48 h
[50] = Growth inhibition of human SUDHL8 cells after 24 hrs by MTT assay; assay type: functional; conditions: SU-DHL-8, 24 h
[51] = Growth inhibition of human WSU-FSCCL cells after 24 hrs by MTT assay; assay type: functional
[52] = Growth inhibition of human U2932 cells after 48 hrs by MTT assay; assay type: functional; conditions: U2932, 48 h

Chain of Tyrosine-protein kinase BTK (Homo sapiens) (Q06187 whole entry): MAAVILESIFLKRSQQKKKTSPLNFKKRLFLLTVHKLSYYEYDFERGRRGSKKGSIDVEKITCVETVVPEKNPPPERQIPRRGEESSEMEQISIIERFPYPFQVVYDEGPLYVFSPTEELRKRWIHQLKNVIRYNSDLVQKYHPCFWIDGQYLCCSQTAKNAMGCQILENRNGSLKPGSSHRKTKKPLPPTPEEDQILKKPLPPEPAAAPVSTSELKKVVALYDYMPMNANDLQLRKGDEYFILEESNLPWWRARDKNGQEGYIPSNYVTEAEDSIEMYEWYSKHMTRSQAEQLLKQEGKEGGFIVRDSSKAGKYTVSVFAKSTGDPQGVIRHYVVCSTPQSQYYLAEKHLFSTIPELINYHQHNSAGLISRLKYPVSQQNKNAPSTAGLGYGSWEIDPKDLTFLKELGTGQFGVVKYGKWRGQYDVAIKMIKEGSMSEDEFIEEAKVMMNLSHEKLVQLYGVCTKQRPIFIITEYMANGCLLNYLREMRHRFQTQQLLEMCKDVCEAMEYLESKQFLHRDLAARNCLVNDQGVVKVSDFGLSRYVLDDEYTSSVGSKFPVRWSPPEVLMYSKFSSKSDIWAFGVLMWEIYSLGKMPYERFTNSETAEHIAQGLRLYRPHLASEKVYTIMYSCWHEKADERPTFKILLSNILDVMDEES
Chain of Tyrosine-protein kinase Lyn (Homo sapiens) (P07948 2-512 limits assumed): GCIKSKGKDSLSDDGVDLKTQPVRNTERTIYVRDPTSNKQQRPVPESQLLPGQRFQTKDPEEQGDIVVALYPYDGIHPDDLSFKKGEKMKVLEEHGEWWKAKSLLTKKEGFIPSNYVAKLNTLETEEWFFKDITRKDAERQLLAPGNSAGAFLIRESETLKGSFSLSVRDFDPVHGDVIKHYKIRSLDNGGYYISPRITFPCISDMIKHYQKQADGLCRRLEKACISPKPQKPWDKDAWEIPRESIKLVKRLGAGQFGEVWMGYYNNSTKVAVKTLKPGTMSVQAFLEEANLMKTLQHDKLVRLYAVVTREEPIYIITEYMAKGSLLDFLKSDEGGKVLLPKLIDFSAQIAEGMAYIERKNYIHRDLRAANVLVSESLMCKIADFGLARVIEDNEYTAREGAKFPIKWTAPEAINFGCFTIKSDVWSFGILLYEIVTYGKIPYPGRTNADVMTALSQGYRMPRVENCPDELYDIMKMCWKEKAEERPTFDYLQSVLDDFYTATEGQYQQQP

Cn1c(=O)c(-c2c(Cl)cccc2Cl)cc2c(N)nc(Nc3ccc(NCCN4CCOCC4)cc3)nc21
Activity [1]: 31% | Activity [2]: 0% | Activity [3]: 10%

COc1cc(Nc2ncc(F)c(Nc3ccc4c(n3)NC(=O)C(C)(C)O4)n2)cc(OC)c1OC [R-406]
inhibition [4]: Active | inhibition at 5 µM [5]: 31%

CN1CCN(c2ccc(Nc3nc(N)c4cc(-c5c(Cl)cccc5Cl)c(=O)n(C)c4n3)cc2)CC1 [listing 1 of 2 here]
Activity [1]: 9% | inhibition [6]: Dose-dependent effect | inhibition [7]: 40% | inhibition [8]: Dose-dependent effect | inhibition [4]: Active | Activity [2]: -1% | Activity [3]: 3% | inhibition [9]: 10%

Nc1nc(Nc2ccccc2)nc2c1CC(c1c(Cl)cccc1Cl)CN2 (stereo not drawn)
GI50 [10]: 7.5 µM | GI50 [11]: 2.4 µM | GI50 [12]: 4 µM | GI50 [13]: 1.3 µM

Cn1c(=O)c(-c2c(Cl)cccc2Cl)cc2c(N)nc(Nc3ccccc3)nc21
GI50 [14]: 3.1 µM | GI50 [10]: 1.7 µM | Activity (PBMC): 3% | GI50 [11]: 0.4 µM | GI50 [15]: 0.9 µM | solubility [16]: < 1 µg/mL | GI50 [12]: 1.8 µM | GI50 [13]: 0.7 µM

Nc1nc(Nc2ccccc2)nc2[nH]c(=O)c(-c3c(Cl)cccc3Cl)cc12
GI50 [10]: 8.8 µM | GI50 [11]: > 100 µM | GI50 [12]: 12.1 µM | GI50 [13]: > 100 µM

Nc1nc(N)c2c(n1)NC(=O)C(c1c(Cl)cccc1Cl)C2 (stereo not drawn)
GI50 [10]: > 100 µM | GI50 [11]: > 100 µM | GI50 [12]: > 100 µM | GI50 [13]: > 100 µM

CN1CCN(c2ccc(Nc3nc(N)c4cc(-c5c(Cl)cccc5Cl)c(=O)n(C)c4n3)cc2)CC1 [listing 2 of 2 here]
GI50 [17]: 3.7 µM | GI50 [18]: 2.7 µM | GI50 [19]: 3.6 µM | GI50 (WSU-NHL [20]): 2.7 µM | GI50 [21]: 3 µM | GI50 [22]: 5 µM | GI50 [10]: 4.9 µM | GI50 [23]: 4.9 µM | GI50 [24]: 5.9 µM | GI50 (WSU-NHL [25]): 3.7 µM | GI50 [26]: 5 µM | GI50 [27]: 3 µM | GI50 [11]: 2.6 µM | GI50 [28]: 4.9 µM | GI50 [29]: 3.6 µM | GI50 [30]: 3.6 µM | GI50 [31]: 5 µM | GI50 [32]: 3 µM | GI50 [33]: 4.9 µM | GI50 [34]: 3.6 µM | GI50 [35]: 3.6 µM | GI50 [36]: 3 µM | GI50 [37]: 3 µM | GI50 [38]: 5.9 µM | GI50 [39]: 5.4 µM | GI50 [40]: 3.7 µM | GI50 [41]: 3.6 µM | GI50 [42]: 3.6 µM | GI50 [12]: 3.2 µM | GI50 [43]: 5.4 µM | GI50 [44]: 3 µM | GI50 [45]: 5.4 µM | GI50 [46]: 2.7 µM | GI50 [47]: 5.9 µM | GI50 [13]: 3 µM | GI50 [48]: 2.7 µM | GI50 [49]: 3 µM | inhibition at 5 µM [5]: 63% | GI50 [50]: 5.4 µM | GI50 [51]: 3.7 µM | GI50 [52]: 5 µM

Cn1c(=O)c(-c2c(Cl)cccc2Cl)cc2c(N)nc(Nc3ccc(OCCN4CCOCC4)cc3)nc21
Activity [1]: 44% | Activity [2]: 0% | Activity [3]: 16%

CN1CCN(c2ccc(Nc3nc(N)c4cc(-c5c(Cl)cccc5Cl)c(=O)n(C)c4n3)cc2)CC1.CS(=O)(=O)O
solubility [16]: 10000 µg/mL

C=CC(=O)N1CCC[C@@H](n2nc(-c3ccc(Oc4ccccc4)cc3)c3c(N)ncnc32)C1 [IBRUTINIB]
inhibition [4]: Active | inhibition at 5 µM [5]: 3%

CN1C(=O)C(c2c(Cl)cccc2Cl)Cc2c(N)nc(Nc3ccccc3)nc21 (stereo not drawn)
GI50 [10]: > 100 µM | GI50 [11]: 1.7 µM | GI50 [12]: 67.2 µM | GI50 [13]: 1.3 µM

Nc1nc(Nc2ccccc2)nc2c1CC(c1c(Cl)cccc1Cl)C(=O)N2 (stereo not drawn)
GI50 [10]: 12 µM | GI50 [11]: 5.7 µM | GI50 [12]: > 100 µM | GI50 [13]: 52.3 µM

— ChEMBL document CHEMBL3352413, “4-Amino-2-arylamino-6-(2,6-dichlorophenyl)-pyrido[2,3-d]pyrimidin-7-(8H)-ones as BCR kinase inhibitors for B lymphoid malignancies” (Eur J Med Chem, 2014)
